Test results as given in patent US6875760B2 (Novo Nordisk A/S, priority 1999, dated 2005).
Read-outs that look alike come from different tables or passages of the source.

Biological target: T1, human glucagon receptor (Homo sapiens, UniProt P47871)
T1 construct: expressed in transfected cells; host or cells: BHK (baby hamster kidney) cells
Test: Glucagon Binding Assay (III)
Settings: BHK cell membranes, WGA SPA beads, 125I-glucagon
Protocol: BHK (baby hamster kidney cell line) cells were transfected with the human glucagon receptor and a membrane preparation of the cells was prepared.
All steps in the membrane preparation were kept on ice or performed at 4° C. BHK cells were harvested and centrifuged. […] The pellet was resuspended in homogenisation buffer, homogenised 2×10 sec (Polytron) and additional homogenisation buffer was added. […] (Polytron).
The glucagon binding assay was carried out in opti plates (Polystyrene Microplates, Packard). […] Finally 50 μL WGA beads containing 1 mg beads were transferred to the well. The assay was incubated for 4 hours on a shaker and then settled for 8-48 hours. The opti plates were counted in a Topcounter. Non-specific binding was determined with 500 nM of glucagon.

[1] = read-out: Glu Bd Assay (III) IC50

T1 sequence (P47871 26-477): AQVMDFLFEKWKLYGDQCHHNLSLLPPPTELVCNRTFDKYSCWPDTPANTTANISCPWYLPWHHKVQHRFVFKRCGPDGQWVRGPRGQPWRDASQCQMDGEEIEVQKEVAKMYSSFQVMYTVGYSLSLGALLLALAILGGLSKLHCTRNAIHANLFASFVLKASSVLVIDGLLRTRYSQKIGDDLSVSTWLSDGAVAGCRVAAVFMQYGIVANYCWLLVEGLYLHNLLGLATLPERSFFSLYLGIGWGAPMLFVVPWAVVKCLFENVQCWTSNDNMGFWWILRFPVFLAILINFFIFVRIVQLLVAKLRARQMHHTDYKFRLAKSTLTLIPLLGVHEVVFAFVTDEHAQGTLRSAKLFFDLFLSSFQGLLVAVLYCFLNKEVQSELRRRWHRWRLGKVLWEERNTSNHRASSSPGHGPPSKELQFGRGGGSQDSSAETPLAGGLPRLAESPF

Compound	IC50 (Glu Bd Assay (III) IC50 (nM)) [nM]	IC50 [1] [nM]
CC(C)(C)[C@H]1CC[C@H](N(Cc2ccc(C(=O)N3CCCC(C(=O)O)C3)cc2)C(=O)Nc2ccc(OC(F)(F)F)cc2)CC1 (relative stereo) [Example 94, 1-{4-[1-(trans-4-tert-Butylcyclohexyl)-3-(4-trifluoromethoxyphenyl)ureidomethyl]benzoyl}piperidine-3-carboxylic acid]	1000	–
CC(NC(=O)N(Cc1ccc(C(=O)Nc2nn[nH]n2)cc1)c1ccc(C2CCCCC2)cc1)c1ccc(Cl)cc1 (single isomer, unassigned) [Example 337, 4-[3-[1-(4-Chlorophenyl)ethyl]-1-(4-Cyclohexylphenyl)ureidomethyl]-N-(2H-tetrazol-5-yl)benzamide]	–	22
CC(NC(=O)N(Cc1ccc(C(=O)Nc2nn[nH]n2)cc1)c1ccc(C2CCCCC2)cc1)c1ccc(Cl)cc1 (single isomer, unassigned) [Example 338, 4-[3-[1-(4-Chlorophenyl)ethyl]-1-(4-cyclohexylphenyl)ureidomethyl]-N-(2H-tetrazol-5-yl)benzamide]	–	169
CCCCC(CC)CN(Cc1ccc(C(=O)NCCC(=O)O)cc1)C(=O)Nc1ccc(Oc2ccccc2)cc1 (stereo not drawn) [Example 14, 3-{4-[1-(2-Ethylhexyl)-3-(4-phenoxyphenyl)ureidomethyl]benzoylamino}propionic acid]	–	184
CC1CCC(N(Cc2ccc(C(=O)NCCC(=O)O)cc2)C(=O)Nc2ccc(OC(F)(F)F)cc2)CC1 (stereo not drawn) [Example 15, 3-{4-[1-(4-Methylcyclohexyl)-3-(4-trifluoromethoxyphenyl)ureidomethyl]benzoylamino}propionic acid]	–	826
CC(C)(C)C1CCC(N(Cc2ccc(C(=O)NCCC(=O)O)cc2)C(=O)Nc2ccc(Cl)c(Cl)c2)CC1 (stereo not drawn) [Example 16, 3-{4-[1-(4-tert-Butylcyclohexyl)-3-(3,4-dichlorophenyl)ureidomethyl]benzoylamino}propionic acid]	–	39
CC(C)(C)C1CCC(N(Cc2ccc(C(=O)NCCC(=O)O)cc2)C(=O)Nc2ccc(Oc3ccccc3)cc2)CC1 (stereo not drawn) [Example 17, 3-{4-[1-(4-tert-Butylcyclohexyl)-3-(4-phenoxyphenyl)ureidomethyl]benzoylamino}propionic acid]	–	27
O=C(O)CCNC(=O)c1ccc(CN(CCC(c2ccccc2)c2ccccc2)C(=O)Nc2ccc(OC(F)(F)F)cc2)cc1 [Example 18, 3-{4-[1-(3,3-Diphenylpropyl)-3-(4-trifluoromethoxyphenyl)ureidomethyl]benzoylamino}propionic acid]	–	126
O=C(O)CCNC(=O)c1ccc(CN(CCc2ccc(Cl)c(Cl)c2)C(=O)Nc2ccc(OC(F)(F)F)cc2)cc1 [Example 19, 3-{4-[1-[2-(3,4-Dichlorophenyl)ethyl]-3-(4-trifluoromethoxyphenyl)ureidomethyl]benzoylamino}propionic acid]	–	201
CCCCC(CC)CN(Cc1ccc(C(=O)NCCC(=O)O)cc1)C(=O)Nc1cccc(C#N)c1 (stereo not drawn) [Example 20, 3-{4-[3-(3-Cyanophenyl)-1-(2-ethylhexyl)ureidomethyl]benzoylamino}propionic acid]	–	2370
CCCCC(CC)CN(Cc1ccc(C(=O)NCCC(=O)O)cc1)C(=O)Nc1cccc(C(F)(F)F)c1 (stereo not drawn) [Example 21, 3-{4-[1-(2-Ethylhexyl)-3-(3-trifluoromethylphenyl)ureidomethyl]benzoylamino}propionic acid]	–	1500
CC1CCC(N(Cc2ccc(C(=O)NCCC(=O)O)cc2)C(=O)Nc2ccc(Oc3ccccc3)cc2)CC1 (stereo not drawn) [Example 22, 3-{4-[1-(4-Methylcyclohexyl)-3-(4-phenoxyphenyl)ureidomethyl]benzoylamino}propionic acid]	–	1100
CC(C)(C)C1CCC(N(Cc2ccc(C(=O)NCCC(=O)O)cc2)C(=O)NCCc2cccs2)CC1 (stereo not drawn) [Example 23, 3-{4-[1-(4-tert-Butylcyclohexyl)-3-(2-thiophen-2-ylethyl)ureidomethyl]benzoylamino}propionic acid]	–	1800
COc1cc(OC)c(NC(=O)N(Cc2ccc(C(=O)NCCC(=O)O)cc2)C2CCC(C(C)(C)C)CC2)cc1Cl (stereo not drawn) [Example 24, 3-{4-[1-(4-tert-Butylcyclohexyl)-3-(5-chloro-2,4-dimethoxyphenyl)ureidomethyl]benzoylamino}propionic acid]	–	1700
CC(C)(C)C1CCC(N(Cc2ccc(C(=O)NCCC(=O)O)cc2)C(=O)Nc2ccccc2C(F)(F)F)CC1 (stereo not drawn) [Example 25, 3-{4-[1-(4-tert-Butylcyclohexyl)-3-(2-trifluoromethylphenyl)ureidomethyl]benzoylamino}propionic acid]	–	935
CSc1cccc(NC(=O)N(Cc2ccc(C(=O)NCCC(=O)O)cc2)C2CCC(C(C)(C)C)CC2)c1 (stereo not drawn) [Example 26, 3-{4-[1-(4-tert-Butylcyclohexyl)-3-(3-methylsulfanylphenyl)ureidomethyl]benzoylamino}propionic acid]	–	385
CC(C)(C)C1CCC(N(Cc2ccc(C(=O)NCCC(=O)O)cc2)C(=O)NCCc2ccccc2)CC1 (stereo not drawn) [Example 27, 3-{4-[1-(4-tert-Butylcyclohexyl)-3-phenethylureidomethyl]benzoylamino}propionic acid]	–	2000

Compound	IC50 (Glu Bd Assay (III) IC50 (nM)) [nM]	IC50 [1] [nM]
CC(C)(C)C1CCC(N(Cc2ccc(C(=O)NCCC(=O)O)cc2)C(=O)Nc2ccccc2-c2ccccc2)CC1 (stereo not drawn) [Example 28, 3-{4-[3-Biphenyl-2-yl-1-(4-tert-butylcyclohexyl)ureidomethyl]benzoylamino}propionic acid]	–	266
CC(C)c1ccc(NC(=O)N(Cc2ccc(C(=O)NCCC(=O)O)cc2)C2CCC(C(C)(C)C)CC2)cc1 (stereo not drawn) [Example 29, 3-{4-[1-(4-tert-Butylcyclohexyl)-3-(4-isopropylphenyl)ureidomethyl]benzoyl}aminopropionic acid]	–	149
CSc1ccc(NC(=O)N(Cc2ccc(C(=O)NCCC(=O)O)cc2)C2CCC(C(C)(C)C)CC2)cc1 (stereo not drawn) [Example 30, 3-{4-[1-(4-tert-Butylcyclohexyl)-3-(4-methylsulfanylphenyl)ureidomethyl]benzoyl}aminopropionic acid]	–	139
COc1ccc(NC(=O)N(Cc2ccc(C(=O)NCCC(=O)O)cc2)C2CCC(C(C)(C)C)CC2)cc1 (stereo not drawn) [Example 31, 3-{4-[1-(4-tert-Butylcyclohexyl)-3-(4-methoxyphenyl)ureidomethyl]benzoyl}aminopropionic acid]	–	2200
CC(=O)c1ccc(NC(=O)N(Cc2ccc(C(=O)NCCC(=O)O)cc2)C2CCC(C(C)(C)C)CC2)cc1 (stereo not drawn) [Example 32, 3-{4-[1-(4-tert-Butylcyclohexyl)-3-(4-acetylphenyl)ureidomethyl]benzoyl}aminopropionic acid]	–	1680
CCCCOC(=O)c1ccc(NC(=O)N(Cc2ccc(C(=O)NCCC(=O)O)cc2)C2CCC(C(C)(C)C)CC2)cc1 (stereo not drawn) [Example 33, 4-{3-(4-tert-Butylcyclohexyl)-3-[4-(2-carboxyethylcarbamoyl)benzyl]ureido}benzoic acid butyl ester]	–	104
CC(C)(C)C1CCC(N(Cc2ccc(C(=O)NCCC(=O)O)cc2)C(=O)Nc2ccc(Cl)cc2)CC1 (stereo not drawn) [Example 34, 3-{4-[1-(4-tert-Butylcyclohexyl)-3-(4-chlorophenyl)ureidomethyl]benzoyl}aminopropionic acid]	–	462
CC(C)(C)[C@H]1CC[C@H](N(Cc2ccc(C(=O)NCCC(=O)O)cc2)C(=O)Nc2ccc(Cl)cc2Cl)CC1 [Example 35, 3-{4-[1-(4-trans-tert-Butylcyclohexyl)-3-(2,4-dichlorophenyl)ureidomethyl]benzoylamino}propionic acid]	–	352
CCCCC(CC)CN(Cc1ccc(C(=O)NCCC(=O)O)cc1)C(=O)Nc1ccc(C(F)(F)F)cc1 (stereo not drawn) [Example 36, 3-{4-[1-(2-Ethylhexyl)-3-(4-trifluoromethylphenyl)ureidomethyl]benzoylamino}propionic acid]	–	151
CCCCOC(=O)c1ccc(NC(=O)N(Cc2ccc(C(=O)NCCC(=O)O)cc2)CC(CC)CCCC)cc1 (stereo not drawn) [Example 37, 4-[3-[4-(2-Carboxyethylcarbamoyl)benzyl]-3-(2-ethylhexyl)ureido]benzoic acid butyl ester]	–	145
CCCCC(CC)CN(Cc1ccc(C(=O)NCCC(=O)O)cc1)C(=O)Nc1ccc(Cl)cc1 (stereo not drawn) [Example 38, 3-{4-[3-(4-Chlorophenyl)-1-(2-ethylhexyl)ureidomethyl]benzoylamino}propionic acid]	–	928
CCCCC(CC)CN(Cc1ccc(C(=O)NCCC(=O)O)cc1)C(=O)Nc1ccc(C)cc1 (stereo not drawn) [Example 39, 3-{4-[1-(2-Ethylhexyl)-3-p-tolylureidomethyl]benzoylamino}propionic acid]	–	227
CCCCC(CC)CN(Cc1ccc(C(=O)NCCC(=O)O)cc1)C(=O)Nc1cccc(C(=O)OCC)c1 (stereo not drawn) [Example 40, 3-[3-[4-(2-Carboxyethylcarbamoyl)benzyl]-3-(2-ethylhexyl)ureido]benzoic acid ethyl ester]	–	821
CCCCC(CC)CN(Cc1ccc(C(=O)NCCC(=O)O)cc1)C(=O)Nc1ccc(SC)cc1 (stereo not drawn) [Example 41, 3-{4-[1-(2-Ethylhexyl)-3-(4-methylsulfanylphenyl)ureidomethyl]benzoylamino}propionic acid]	–	299
CCCCC(CC)CN(Cc1ccc(C(=O)NCCC(=O)O)cc1)C(=O)Nc1ccc(CC)cc1 (stereo not drawn) [Example 42, 3-{4-[1-(2-Ethylhexyl)-3-(4-ethylphenyl)ureidomethyl]benzoylamino}propionic acid]	–	117
CCCCC(CC)CN(Cc1ccc(C(=O)NCCC(=O)O)cc1)C(=O)Nc1ccc(C(C)C)cc1 (stereo not drawn) [Example 43, 3-{4-[1-(2-Ethylhexyl)-3-(4-isopropylphenyl)ureidomethyl]benzoylamino}propionic acid]	–	1110
